Values quoted from earlier work as cited in PMC9851200, “Multiparameter phenotypic screening for endogenous TFEB and TFE3 translocation identifies novel chemical series modulating lysosome function” (Autophagy, 2022).

Tests used:
Design in all cases: method as in original PKIS2 published data
[1] = target: kinases (KINOMEscan panel) (Homo sapiens, UniProt P51451); details: kinase BLK; Published KINOMEscan; ref original PKIS2 published data; cited from earlier work
[2] = target: kinases (KINOMEscan panel) (Homo sapiens, UniProt Q2M2I8); details: AAK1; Published KINOMEscan; ref original PKIS2 published data; cited from earlier work
Chain of kinases (KINOMEscan panel) (Homo sapiens, UniProt Q2M2I8) (Q2M2I8 whole entry): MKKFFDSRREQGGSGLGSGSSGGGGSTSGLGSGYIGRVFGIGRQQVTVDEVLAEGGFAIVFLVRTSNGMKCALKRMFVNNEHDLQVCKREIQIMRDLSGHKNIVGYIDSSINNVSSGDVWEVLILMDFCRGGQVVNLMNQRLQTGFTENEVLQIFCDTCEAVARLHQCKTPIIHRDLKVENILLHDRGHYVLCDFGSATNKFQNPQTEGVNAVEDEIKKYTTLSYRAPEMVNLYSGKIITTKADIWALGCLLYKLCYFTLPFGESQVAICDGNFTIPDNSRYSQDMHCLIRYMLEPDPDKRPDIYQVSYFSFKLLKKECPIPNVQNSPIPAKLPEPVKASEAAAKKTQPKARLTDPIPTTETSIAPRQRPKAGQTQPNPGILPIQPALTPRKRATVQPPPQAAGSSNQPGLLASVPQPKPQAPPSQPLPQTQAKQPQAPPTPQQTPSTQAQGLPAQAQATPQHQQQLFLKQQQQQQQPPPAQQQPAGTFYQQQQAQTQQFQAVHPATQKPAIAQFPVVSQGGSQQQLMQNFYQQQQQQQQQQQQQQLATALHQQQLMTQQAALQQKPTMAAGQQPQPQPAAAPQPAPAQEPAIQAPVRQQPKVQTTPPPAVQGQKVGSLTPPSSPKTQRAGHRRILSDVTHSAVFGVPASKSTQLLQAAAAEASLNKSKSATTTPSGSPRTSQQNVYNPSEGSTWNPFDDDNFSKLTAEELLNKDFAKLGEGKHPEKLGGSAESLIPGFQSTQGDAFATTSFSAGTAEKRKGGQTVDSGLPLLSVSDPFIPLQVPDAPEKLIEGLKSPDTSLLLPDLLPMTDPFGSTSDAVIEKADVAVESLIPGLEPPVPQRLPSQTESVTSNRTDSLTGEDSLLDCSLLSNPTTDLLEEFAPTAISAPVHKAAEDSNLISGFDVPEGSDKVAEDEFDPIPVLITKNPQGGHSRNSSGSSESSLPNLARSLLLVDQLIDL

[3] = target: T1, kinases (KINOMEscan panel) (Homo sapiens, UniProt Q6ZN16); details: Published KINOMEscan; ref original PKIS2 published data; cited from earlier work
T1 sequence (Q6ZN16 1-1313): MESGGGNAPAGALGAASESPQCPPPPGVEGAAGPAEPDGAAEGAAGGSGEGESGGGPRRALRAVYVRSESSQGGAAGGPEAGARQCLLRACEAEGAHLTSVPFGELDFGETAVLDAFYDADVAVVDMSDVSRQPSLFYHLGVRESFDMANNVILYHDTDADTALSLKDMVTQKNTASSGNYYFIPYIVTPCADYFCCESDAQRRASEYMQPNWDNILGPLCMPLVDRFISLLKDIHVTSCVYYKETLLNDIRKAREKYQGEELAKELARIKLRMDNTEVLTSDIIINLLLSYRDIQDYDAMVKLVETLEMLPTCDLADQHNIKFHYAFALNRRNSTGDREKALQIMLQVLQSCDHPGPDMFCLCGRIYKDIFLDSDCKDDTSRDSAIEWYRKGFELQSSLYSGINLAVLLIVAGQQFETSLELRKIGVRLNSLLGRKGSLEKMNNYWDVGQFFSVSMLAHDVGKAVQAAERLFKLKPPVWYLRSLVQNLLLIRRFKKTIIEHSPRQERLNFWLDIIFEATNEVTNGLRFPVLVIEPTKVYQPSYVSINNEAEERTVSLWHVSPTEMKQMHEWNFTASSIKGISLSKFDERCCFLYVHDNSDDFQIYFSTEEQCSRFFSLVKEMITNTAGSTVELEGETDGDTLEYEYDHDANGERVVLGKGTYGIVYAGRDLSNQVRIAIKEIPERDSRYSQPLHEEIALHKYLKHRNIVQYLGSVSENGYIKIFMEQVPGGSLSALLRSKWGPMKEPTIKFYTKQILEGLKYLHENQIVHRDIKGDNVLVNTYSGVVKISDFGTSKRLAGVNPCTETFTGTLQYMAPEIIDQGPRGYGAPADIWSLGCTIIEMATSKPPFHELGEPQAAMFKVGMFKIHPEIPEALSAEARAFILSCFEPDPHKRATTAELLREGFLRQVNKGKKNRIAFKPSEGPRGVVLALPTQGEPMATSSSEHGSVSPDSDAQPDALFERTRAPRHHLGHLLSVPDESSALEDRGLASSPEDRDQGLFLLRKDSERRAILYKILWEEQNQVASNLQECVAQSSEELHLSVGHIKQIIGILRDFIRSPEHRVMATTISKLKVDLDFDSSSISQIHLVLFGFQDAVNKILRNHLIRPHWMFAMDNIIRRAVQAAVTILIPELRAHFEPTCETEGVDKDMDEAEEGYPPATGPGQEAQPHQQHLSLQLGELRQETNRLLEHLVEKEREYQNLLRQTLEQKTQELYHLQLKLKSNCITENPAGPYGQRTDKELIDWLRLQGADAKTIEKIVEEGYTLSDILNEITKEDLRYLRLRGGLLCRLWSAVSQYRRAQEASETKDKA

[4] = target: T2, kinases (KINOMEscan panel) (Homo sapiens, UniProt Q86YV6); details: kinase MYLK4; Published KINOMEscan; ref original PKIS2 published data; cited from earlier work
T2 sequence (Q86YV6 1-388): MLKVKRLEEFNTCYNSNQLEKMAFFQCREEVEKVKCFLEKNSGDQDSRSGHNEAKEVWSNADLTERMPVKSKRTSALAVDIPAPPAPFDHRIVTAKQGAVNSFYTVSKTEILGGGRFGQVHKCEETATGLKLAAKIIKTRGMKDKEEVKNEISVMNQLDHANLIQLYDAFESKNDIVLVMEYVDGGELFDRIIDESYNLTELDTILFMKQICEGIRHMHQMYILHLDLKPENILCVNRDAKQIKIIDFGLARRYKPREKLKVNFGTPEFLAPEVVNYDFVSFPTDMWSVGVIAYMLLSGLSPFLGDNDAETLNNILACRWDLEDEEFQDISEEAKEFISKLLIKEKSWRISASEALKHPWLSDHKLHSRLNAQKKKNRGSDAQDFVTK

Chain of kinases (KINOMEscan panel) (Homo sapiens, UniProt P51451) (P51451 whole entry): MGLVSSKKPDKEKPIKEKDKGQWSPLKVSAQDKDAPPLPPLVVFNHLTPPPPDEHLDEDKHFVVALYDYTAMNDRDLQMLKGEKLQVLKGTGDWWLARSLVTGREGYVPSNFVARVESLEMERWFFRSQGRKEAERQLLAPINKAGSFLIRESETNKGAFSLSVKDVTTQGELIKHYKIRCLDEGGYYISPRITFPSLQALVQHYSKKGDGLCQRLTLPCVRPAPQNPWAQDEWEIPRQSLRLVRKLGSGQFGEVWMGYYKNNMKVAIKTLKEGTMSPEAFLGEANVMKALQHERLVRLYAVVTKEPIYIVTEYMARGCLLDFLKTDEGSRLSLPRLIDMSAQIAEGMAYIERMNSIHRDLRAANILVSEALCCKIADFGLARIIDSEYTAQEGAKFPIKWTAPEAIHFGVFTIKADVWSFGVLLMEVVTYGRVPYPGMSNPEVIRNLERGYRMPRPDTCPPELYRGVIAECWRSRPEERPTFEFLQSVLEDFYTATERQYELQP

Structure (SMILES): Cc1cccc(-c2nc(Nc3ccncc3)c3ccccc3n2)n1 [NK215]
- KINOMEscan BLK [1]: 1
- KINOMEscan AAK1 [2]: 2
- KINOMEscan MAP3K15 [3]: 0
- KINOMEscan MYLK4 [4]: 7
